Our source for the cytotoxicity values is ChEMBL document CHEMBL3507680, “University of Dundee, Gates Library screen for HepG2 cell viability”.

A short description of this series: Human HepG2 cell viability assay in 384 well format. Set-up: dose 125 nL, time 70.5 hour; cytotoxicity at 70.5 h: concentration not given beside the values. The settings on record: HepG2 cells, read-out: Inhibition. The series is classed as toxicity, cell-based.
For `CN(C)c1cc(C(=O)N2CCCCC2)ccn1`, the cytotoxicity at 70.5 h was determined as 0.476%.
As for `CCc1n[nH]c(C2CN(C(=O)c3cc4c(s3)CCC4)CCO2)n1` (stereo unspecified), the cytotoxicity at 70.5 h was -4.28%.
Under `CCn1c(N)nc2cc(C(=O)NCc3cccc(C)c3C)cnc21` stands 17.1%.
Under `Cn1cccc1C(=O)N1CCC2(CC1)CN(c1ccccn1)CCO2` stands -5.53%.
Consider `CN(Cc1cc(C(C)(C)C)n[nH]1)C(=O)c1cn2ccsc2n1`, for which the cytotoxicity at 70.5 h is -2.6%.
Next, `CN(C)C(=O)C1CN(Cc2nccs2)CCN(S(C)(=O)=O)C1` (stereo unspecified): -4.9%; `O=C1[C@H]2CN(C3CCOC3)C[C@H]2CN1c1ccccc1` (stereo partly specified): -1.16%; `Cc1nnc2n1CCN(C(=O)CN1C(=O)CCCc3ccccc31)C2`: 12.9%.
Under `Cc1nc(Cn2cc(C#N)c(=O)c3ccccc32)no1` stands -5.75%; under `CCc1nc(CN2CCCN(CC(O)c3ccccc3)CC2)no1` (stereo unspecified), -8.08%.
As for `O=C(NCc1ccccc1)N1C[C@H]2C[C@H](C(=O)N3CCCC3)[C@@H](C1)O2`, the cytotoxicity at 70.5 h is -5.41%.
Under `c1ccc(Cc2noc(CCNC3CCOC4(CCOCC4)C3)n2)cc1` (stereo unspecified) stands 11.9%; under `CNc1cc2c(nn1)CCN(C(=O)c1cc(C)n(C3CC3)c1C)C2`, 15.8%; under `COc1ccccc1CNc1ccc2nncn2n1`, -11.2%.
`CN(CCC#N)C(=O)CN1CCCN(Cc2noc(C3CC3)n2)CC1`: the cytotoxicity at 70.5 h is -0.995%.
Under `CN(C)S(=O)(=O)c1ccc2c(c1)N(Cc1nccn1C)CC2` stands -3.03%; under `CN(Cc1cccs1)C(=O)CN1CCCC1Cn1cncn1` (stereo unspecified), 2.88%; under `CC(Oc1cc(Cl)cc(Cl)c1)C(=O)NCCOCC(N)=O` (stereo unspecified), 18%.
Under `Cn1cc(C2=CCN(CCCOc3ccc(C(N)=O)cc3)CC2)cn1` stands -11.2%.
Next, `CS(=O)(=O)N(Cc1ccon1)c1cccc(Br)c1`: -1.5%; `O=S(=O)(Cc1cccc(Cl)c1)CC(O)Cn1cccn1` (stereo unspecified): -5.5%.
As for `Cc1ccc(S(=O)(=O)NCC(C)(C)N)c(F)c1`, the cytotoxicity at 70.5 h was -6.25%.
Under `COc1ncccc1C(=O)N1CCn2c(COCC3CC3)cnc2C1C` (stereo unspecified) stands -0.554%; under `CC(C)[C@]1(O)CN(C(=O)COCC(N)=O)C[C@H]1C`, 23.2%.
Under `O=C(c1cnccn1)N1CCCC2(CCN(Cc3ccc(F)cc3)C2)C1` (stereo unspecified) stands -4.76%; under `NCC(=O)N1CCC(c2cncc(Oc3cccnc3)n2)CC1`, 1.14%.
Under `O=S(=O)(Cc1ccccc1)NCCc1nnc2n1CCC2` stands -7.99%; under `Cc1cc(N(C)Cc2cc(C)on2)n2nc(C)c(C)c2n1`, -5.61%.
Regarding `CC(C)N(CCC#N)C(=O)c1cnc(-c2ccc3c(c2)OCO3)s1`, the cytotoxicity at 70.5 h was -0.296%.
Under `CN(C)C(=O)CN1CCCCC1c1nc(N)ncc1-c1cccc(F)c1` (stereo unspecified) stands 34.4%; under `CS(=O)(=O)NC1CCN(C(=O)c2[nH]c3ccc(Cl)cc3c2Cl)CC1`, 31.7%; under `CN1CCCC2(C1)CN(C(=O)C1CCCCC1)CCO2` (stereo unspecified), -4.05%.
For `NC(=O)c1cc(C2CC2)nc2ccc(F)cc12`, the cytotoxicity at 70.5 h was found to be 2.17%.
Next, `CN(Cc1n[nH]c2c1CCC2)C(=O)c1cc(-c2cccn2C)n[nH]1`: 25.6%.
Under `O=C(CN1CCOC1=O)N1CC[C@@H](c2ccc3ccccc3c2)[C@H](O)C1` stands -9.33%.
Turning to `NC(=O)c1cc2c(nc1Oc1ccccc1CN1CCCCC1)CCC2`, the cytotoxicity at 70.5 h was -15%.
Next, `Cc1noc(C)c1-c1nc(C2CCCN(C(=O)CN)C2)ccc1CO` (stereo unspecified): -11.3%.
Consider `Cc1nn(C)c(C)c1NC(=O)CNC(c1ccccc1)C1CCCC1` (stereo unspecified), for which the cytotoxicity at 70.5 h was -9.64%.
Next, `O=C(O)C1CCN(C[C@H]2CC[C@@H](Cc3ccc4c(c3)OCO4)O2)CC1`: 8.69%; `Cc1nc(C)c(C)c(NCCSCc2[nH]cnc2C)n1`: -5.17%.
Next, `CNc1cc(N2CCCC2CNCc2cccnc2)ncn1` (stereo unspecified): 4.98%.
Under `CCN(CC)c1ccc(C(=O)NCc2cccnc2-n2cncn2)cn1` stands -10.7%.
For `N#Cc1nccnc1NCCC1CCN(CC(F)(F)F)CC1`, the cytotoxicity at 70.5 h was determined as 21.7%.
Next, `Cc1cc(N2C[C@H](C3CC3)[C@@H](N)C2)nc(N2CCCCC2)n1`: 3.53%; `Cc1noc(C)c1CN1CCC2(CC1)C(c1ccccc1)CC(=O)N2C` (stereo unspecified): -1.86%.
Under `Cc1n[nH]c(C)c1CC(=O)N1CC[C@@](C)(O)[C@@H](Cc2ccccc2)C1` stands -16.1%; under `CCSc1nc2ccccc2c(=O)n1OCC(=O)OC`, -8.5%.
Next, `CN(C)c1nc(NCCc2cnccn2)ncc1F`: -9.9%; `CCSc1nc(N)c(NC(=O)c2ccc(C)cc2)c(=O)[nH]1`: 10.5%; `CN1CCN(c2ccc3ccc(C(=O)N4CCCCO4)cn23)CC1`: -6.94%.
As for `COc1ncccc1CN1CCc2[nH]cnc2C1CCSC` (stereo unspecified), the cytotoxicity at 70.5 h stood at 25.1%.
As for `Cc1nccn1-c1ccc(CNC(=O)c2ccc[nH]2)cn1`, the cytotoxicity at 70.5 h is -6.51%.
For the compound `CN(Cc1ccccc1Cl)C(C(=O)O)c1ccc(F)c(CO)c1` (stereo unspecified), the cytotoxicity at 70.5 h was -7.98%.
Next, `Cc1nc(C)n(CC2CCCCN2c2ncnc3ccsc23)n1` (stereo unspecified): -11.9%; `O=C(c1cnc(-c2ccccn2)s1)N1CCCC(n2cccn2)C1` (stereo unspecified): 10.2%.
Under `Cc1ccc2ncn(CC(O)CN3CCC(C)CC3)c(=O)c2c1` (stereo unspecified) stands 19.7%; under `Cc1cc(C(=O)N(CC(C)C)CC(O)c2ccc(F)cc2)[nH]n1` (stereo unspecified), -2.51%.
Next, `CCC(C)(CC(=O)OC)NC(=O)c1ccc2[nH]ccc2c1` (stereo unspecified): -10.1%.
Take `NCCO[C@H]1C[C@@H](O)C12CCN(C(=O)COc1cccc(Cl)c1)CC2`: the cytotoxicity at 70.5 h is -5.89%.
As to `CCC1(CC)Cc2ccccc2-c2nc(CN(C)C)nc(O)c21`, the cytotoxicity at 70.5 h came to 27.5%.
Under `CSc1nnc(C2CCN(C(=O)N3CCCC3)CC2)n1C` stands -9.43%; under `CC(=O)N1C[C@@H](c2ccsc2)[C@@H]2CN(Cc3ccccc3)CC[C@@H]21`, -10.8%.
Under `O=C(O)c1ccc(OC2CCOCC2)cc1` stands -3.72%.
Turning to `FC(F)(F)c1nc(NC2CCc3ncnn3C2)c2ccccc2n1` (stereo unspecified), the cytotoxicity at 70.5 h was determined as 24.8%.
Under `N#Cc1ccc(NCCc2n[nH]c(=O)[nH]2)cc1Cl` stands -10.2%.
With `Cc1nc(C)c(C(=O)N2CCc3[nH]nc(COc4ccccc4)c3C2)s1`, the cytotoxicity at 70.5 h is -1.76%.
Under `CS(=O)(=O)N[C@@H]1CN(C(=O)c2cc3ccccc3s2)C[C@H]1O` stands 19%; under `CN(C1CCCC1)C(C)(C)C(=O)NCCNC(N)=O`, -0.603%.
Under `Cn1nccc1-c1cnc2n1CCNC21CCN(C(=O)C2(C)CC2)CC1` stands -9.28%.
Under `CCCc1cc(C(=O)N2CCCC(n3ccnc3C)C2)[nH]n1` (stereo unspecified) stands 32.7%; under `CN(C)Cc1cn2c(n1)CN(C1CCOC1)CC2` (stereo unspecified), -1.23%.
